System: extended bacterial panel
Assay: MIC against an extended bacterial panel (Table 15)
Assay type: cell-based

Measured: MIC

CN(C)c1cc(NC(=O)CNC(C)(C)C)c(O)c2c1C[C@H]1C[C@H]3[C@H](N(C)C)C(O)=C(C(N)=O)C(=O)[C@@]3(O)C(O)=C1C2=O [Tigecycline, tigecycline, reference compound]
0.125 µg/mL: Enterococcus faecalis, ATCC29212, Enterococcus faecalis ATCC 29212 | Enterococcus faecalis, ATCC51575, Enterococcus faecalis ATCC 51575, VanB | Enterococcus faecalis, ATCC700802, Enterococcus faecalis ATCC 700802, VanB | Enterococcus faecalis, CCUG47775, Enterococcus faecalis CCUG 47775, Van A | Enterococcus gallinarum, ATCC 49608 / GALLINARUM, Enterococcus gallinarum ATCC 49608, VanC
0.0625 µg/mL: Enterococcus faecalis, ATCC51299, Enterococcus faecalis ATCC 51299, VanB | Enterococcus faecium, CCUG59167, Enterococcus faecium TUH44-29, CCUG 59167, Van A

CN[C@H](CC(C)C)C(=O)N[C@H]1C(=O)N[C@@H](CC(N)=O)C(=O)N[C@H]2C(=O)N[C@H]3C(=O)N[C@H](C(=O)N[C@H](C(=O)O)c4cc(O)cc(O)c4-c4cc3ccc4O)[C@H](O)c3ccc(c(Cl)c3)Oc3cc2cc(c3O[C@@H]2O[C@H](CO)[C@@H](O)[C@H](O)[C@H]2O[C@H]2C[C@](C)(N)[C@H](O)[C@H](C)O2)Oc2ccc(cc2Cl)[C@H]1O [Vancomycin, vancomycin, reference compound]
0.5 µg/mL: Staphylococcus aureus, ATCC 13709 / MRSA, Staphylococcus aureus ATCC 13709, MRSA | Staphylococcus aureus, ATCC19636, Staphylococcus aureus Smith, ATCC 19636 | Staphylococcus aureus, ATCC27660, Staphylococcus aureus ATCC 27660 | Staphylococcus aureus, ATCC29213, Staphylococcus aureus ATCC 29213 | Staphylococcus aureus, ATCC 33591 / MRSA, Staphylococcus aureus ATCC 33591, MRSA | Staphylococcus aureus, ATCC 33592 / MRSA, Staphylococcus aureus ATCC 33592, MRSA | Staphylococcus aureus, ATCC33594, Staphylococcus aureus ATCC 33594 | Staphylococcus aureus, ATCC49230, Staphylococcus aureus ATCC 49230 | Staphylococcus aureus, BAA-1556 / MRSA / USA300, Staphylococcus aureus FPR3757, BAA-1556, USA300 MRSA | Staphylococcus aureus, BAA-1707 / MRSA / USA400, Staphylococcus aureus MW2, BAA-1707, USA400 MRSA | Staphylococcus aureus, BAA-1717 / MRSA / USA300, Staphylococcus aureus TCH1516, BAA-1717, USA300 MRSA | Staphylococcus aureus, MRSA / NRS 123 / USA400, Staphylococcus aureus NRS123, USA400 MRSA | Staphylococcus aureus, MRSA / NRS 271, Staphylococcus aureus E-MRSA 15, NRS271, MRSA LZD-NS | Staphylococcus aureus, MRSA / NRS 383 / USA200, Staphylococcus aureus NRS383, USA200 MRSA TIG-NS | Staphylococcus aureus, MRSA / NRS 384 / USA300, Staphylococcus aureus NRS384, USA300 MRSA | Staphylococcus aureus, MRSA / NRS 385 / USA500, Staphylococcus aureus NRS385, USA500 MRSA | Staphylococcus aureus, MRSA / NRS 386 / USA700, Staphylococcus aureus NRS386, USA700 MRSA | Staphylococcus aureus, MRSA / NRS 483, Staphylococcus aureus NRS483, USA1000 MRSA | Staphylococcus aureus, MRSA, Staphylococcus aureus R136 | Staphylococcus aureus, NRS72, Staphylococcus aureus Sanger-476, NRS72 | Staphylococcus aureus, NRS157, Staphylococcus aureus NRS157 | Staphylococcus epidermidis, ATCC12228, Staphylococcus epidermidis ATCC 12228 | Staphylococcus saprophyticus, ATCC15305, Staphylococcus saprophyticus ATCC 15305 | Streptococcus agalactiae, ATCC12386, Streptococcus agalactiae ATCC 12386 | Streptococcus oralis, ATCC9811, Streptococcus oralis ATCC 9811 | Streptococcus salivarius, ATCC13419, Streptococcus salivarius ATCC 13419 | Streptococcus sanguinis, ATCC10556, Streptococcus sanguinis ATCC 10556
0.25 µg/mL: Staphylococcus aureus, MRSA / NRS 71, Staphylococcus aureus NRS71, MRSA | Strepotococcus pyogenes ATCC 14289 | Strepotococcus pyogenes ATCC 19615 | Streptococcus pneumoniae, ATCC6301, Streptococcus pneumoniae ATCC 6301 | Streptococcus pneumoniae, ATCC49619, Streptococcus pneumoniae ATCC 49619 | Streptococcus pneumoniae, ATCC51916, Streptococcus pneumoniae Tenessee 23F, ATCC 51916, MDR | Streptococcus pneumoniae, ATCC700669, Streptococcus pneumoniae SP264, ATCC 700669, ST 23F | Streptococcus pneumoniae, ATCC700673, Streptococcus pneumoniae Hungary 19A, ATCC 700673, MDR | Streptococcus pneumoniae, ATCC700675, Streptococcus pneumoniae S. Africa 6B-8, ATCC 700675 | Streptococcus pneumoniae, ATCC700676, Streptococcus pneumonia England ST14-9 ATCC 700676, ERY-R | Streptococcus pneumoniae, ATCC 700677 / PRSP, Streptococcus pneumoniae CSR 14-10, ATCC 700677, PRSP | Streptococcus pneumoniae, PRSP, Streptococcus pneumoniae TM532
2 µg/mL: Streptococcus mutans, ATCC25175, Streptococcus mutans ATCC 25175
1 µg/mL: Staphylococcus aureus, ATCC10390, Staphylococcus aureus ATCC 10390 | Staphylococcus aureus, ATCC29213, Staphylococcus aureus ATCC 29213 with 50% human serum | Staphylococcus aureus, MRSA / NRS 119, Staphylococcus aureus NRS119, MRSA LZD-NS | Staphylococcus aureus, MRSA / NRS 127, Staphylococcus aureus NRS127, MRSA LZD-NS | Staphylococcus aureus, MRSA / NRS 382 / USA100, Staphylococcus aureus NRS382, USA100 MRSA | Staphylococcus aureus, MRSA / NRS 387 / USA800, Staphylococcus aureus NRS387, USA800 MRSA | Staphylococcus aureus, MRSA / NRS 484, Staphylococcus aureus NRS484, USA1100 MRSA | Staphylococcus aureus, MRSA, Staphylococcus aureus ECL 2963621, MRSA DAP-NS | Staphylococcus aureus, MRSA, Staphylococcus aureus ECL 2963667, MRSA DAP-NS | Staphylococcus aureus, MRSA, Staphylococcus aureus ECL 2963743, MRSA DAP-NS | Staphylococcus epidermidis, ATCC51625, Staphylococcus epidermidis CCF 15990, ATCC 51625 | Staphylococcus epidermidis, NRS101, Staphylococcus epidermidis NRS101 | Staphylococcus haemolyticus, ATCC29970, Staphylococcus haemolyticus ATCC 29970 | Staphylococcus intermedius, ATCC29663, Staphylococcus intermedius ATCC 29663
0.125 µg/mL: Staphylococcus aureus, Staphylococcus aureus 6538P
